Results: the NIST ThermoML archive (doi:10.1021/je5008372)
Numbers after ± are expanded uncertainties.

Experiments:
[1] = refractive index (Na D-line) (dimensionless); mn = molality of the nth substance listed, in mol/kg; conditions: 86.8 kPa, Liquid, Standard Abbe refractometry
[2] = mn = molality of the nth substance listed, in mol/kg; conditions: 86.8 kPa, Liquid; for viscosity: Capillary tube (Ostwald / Ubbelohde) method; for speed of sound: Sing-around technique in a fixed-path interferometer; for mass density: Vibrating tube method

CC(=O)Oc1ccccc1C(=O)O [2-acetoxybenzoic acid] + CC#N
Conditions | mass density, [2] [kg/m3] | refractive index, [1] | speed of sound, [2] [m/s] | viscosity, [2] [mPa·s]
288.15 K, m1 = 0.0402 | 789.756 ± 0.17 | 1.3467 ± 0.004 | 1319.9 ± 1.2 | 0.394 ± 0.01
288.15 K, m1 = 0.0834 | 792.285 ± 0.16 | 1.3476 ± 0.004 | 1320.3 ± 1.2 | 0.398 ± 0.01
288.15 K, m1 = 0.11 | 793.822 ± 0.16 | 1.3483 ± 0.004 | 1320.6 ± 1.2 | 0.402 ± 0.01
288.15 K, m1 = 0.1394 | 795.495 ± 0.16 | 1.349 ± 0.004 | 1320.8 ± 1.2 | 0.405 ± 0.01
288.15 K, m1 = 0.1708 | 797.242 ± 0.16 | 1.3498 ± 0.004 | 1321.1 ± 1.2 | 0.408 ± 0.01
288.15 K, m1 = 0.2076 | 799.277 ± 0.16 | 1.3505 ± 0.004 | 1321.4 ± 1.2 | 0.412 ± 0.01
288.15 K, m1 = 0.2453 | 801.312 ± 0.16 | 1.3513 ± 0.004 | 1321.8 ± 1.2 | 0.416 ± 0.01
288.15 K, m1 = 0.2705 | 802.661 ± 0.16 | 1.3519 ± 0.004 | 1322 ± 1.2 | 0.419 ± 0.01
288.15 K, m1 = 0.3006 | 804.272 ± 0.16 | 1.3527 ± 0.004 | 1322.2 ± 1.2 | 0.422 ± 0.01
298.15 K, m1 = 0.0402 | 778.992 ± 0.17 | 1.3422 ± 0.004 | 1279.3 ± 1.2 | 0.349 ± 0.01
298.15 K, m1 = 0.0834 | 781.508 ± 0.17 | 1.3431 ± 0.004 | 1279.7 ± 1.2 | 0.353 ± 0.01
298.15 K, m1 = 0.11 | 783.035 ± 0.17 | 1.3439 ± 0.004 | 1279.9 ± 1.2 | 0.355 ± 0.01
298.15 K, m1 = 0.1394 | 784.705 ± 0.17 | 1.3446 ± 0.004 | 1280.2 ± 1.2 | 0.358 ± 0.01
298.15 K, m1 = 0.1708 | 786.446 ± 0.17 | 1.3453 ± 0.004 | 1280.4 ± 1.2 | 0.362 ± 0.01
298.15 K, m1 = 0.2076 | 788.483 ± 0.16 | 1.3462 ± 0.004 | 1280.7 ± 1.2 | 0.365 ± 0.01
298.15 K, m1 = 0.2453 | 790.515 ± 0.16 | 1.347 ± 0.004 | 1281 ± 1.2 | 0.369 ± 0.01
298.15 K, m1 = 0.2705 | 791.87 ± 0.16 | 1.3477 ± 0.004 | 1281.2 ± 1.2 | 0.371 ± 0.01
298.15 K, m1 = 0.3006 | 793.487 ± 0.16 | 1.3484 ± 0.004 | 1281.5 ± 1.2 | 0.375 ± 0.01
308.15 K, m1 = 0.0402 | 768.176 ± 0.17 | 1.3378 ± 0.004 | 1239 ± 1.2 | 0.316 ± 0.01
308.15 K, m1 = 0.0834 | 770.675 ± 0.17 | 1.3388 ± 0.004 | 1239.3 ± 1.2 | 0.319 ± 0.01
308.15 K, m1 = 0.11 | 772.198 ± 0.17 | 1.3397 ± 0.004 | 1239.5 ± 1.2 | 0.322 ± 0.01
308.15 K, m1 = 0.1394 | 773.857 ± 0.17 | 1.3404 ± 0.004 | 1239.7 ± 1.2 | 0.325 ± 0.01
308.15 K, m1 = 0.1708 | 775.597 ± 0.17 | 1.3412 ± 0.004 | 1240 ± 1.2 | 0.328 ± 0.01
308.15 K, m1 = 0.2076 | 777.624 ± 0.17 | 1.3423 ± 0.004 | 1240.3 ± 1.2 | 0.331 ± 0.01
308.15 K, m1 = 0.2453 | 779.658 ± 0.17 | 1.3431 ± 0.004 | 1240.5 ± 1.2 | 0.334 ± 0.01
308.15 K, m1 = 0.2705 | 781.016 ± 0.17 | 1.3438 ± 0.004 | 1240.8 ± 1.2 | 0.337 ± 0.01
308.15 K, m1 = 0.3006 | 782.624 ± 0.17 | 1.3446 ± 0.004 | 1241 ± 1.2 | 0.34 ± 0.01
318.15 K, m1 = 0.0402 | 757.205 ± 0.18 | 1.3333 ± 0.004 | 1198.8 ± 1.2 | 0.292 ± 0.01
318.15 K, m1 = 0.0834 | 759.697 ± 0.18 | 1.3345 ± 0.004 | 1199.2 ± 1.2 | 0.295 ± 0.01
318.15 K, m1 = 0.11 | 761.21 ± 0.18 | 1.3352 ± 0.004 | 1199.3 ± 1.2 | 0.297 ± 0.01
318.15 K, m1 = 0.1394 | 762.869 ± 0.18 | 1.3359 ± 0.004 | 1199.5 ± 1.2 | 0.3 ± 0.01
318.15 K, m1 = 0.1708 | 764.615 ± 0.17 | 1.3367 ± 0.004 | 1199.7 ± 1.2 | 0.303 ± 0.01
318.15 K, m1 = 0.2076 | 766.635 ± 0.17 | 1.3377 ± 0.004 | 1199.9 ± 1.2 | 0.306 ± 0.01
318.15 K, m1 = 0.2453 | 768.667 ± 0.17 | 1.3388 ± 0.004 | 1200.2 ± 1.2 | 0.309 ± 0.01
318.15 K, m1 = 0.2705 | 770.017 ± 0.17 | 1.3395 ± 0.004 | 1200.4 ± 1.2 | 0.311 ± 0.01
318.15 K, m1 = 0.3006 | 771.63 ± 0.17 | 1.3403 ± 0.004 | 1200.7 ± 1.2 | 0.314 ± 0.01
